Experimental data published in US20170081679A1, “METHODS OF IMPROVING NUCLEASE MEDIATED HOMOLOGOUS RECOMBINATION” (priority 2015, published 2017).
“Also recorded” adds a separate entry of the source.

Legend:
[1] = tested on: rabbit embryos (ROSA26 like locus, RLL); experiment: Cas9 mediated RLL-EGFP knock-in in rabbit embryos in vitro; type: cell-based
Method: (§1) In one embodiment, we designed sgRNA targeting a ROSA26 like locus (RLL) in the rabbit genome (FIG. 2E). We next determined the effects of SCR7, an NHEJ inhibitor, and RS-1, an HDR enhancer on the knock-in success rates. Donor template DNAs were co-microinjected with Cas9 mRNA and sgRNA for RLL locus. After injection, the embryos were treated for 20 h in a serial concentration of SCR7: 0 μM (control), 20 μM, 40 μM, and 80 μM, or in RS-1 at 0 μM (control), 7.5 μM, and 15 μM.
(§2) In one embodiment, we microinjected 79 embryos with RAD51 mRNA, in addition to sgRNA, Cas9 mRNA and donor DNAs (FIG. 3A). RAD51 recombinase is a key player for homologous recombination and the repair of DNA DSBs (reference 13). Since it has been reported that RS-1 stimulates RAD51 (reference 12), we reasoned that including RAD51 mRNA in the microinjection mix would yield similar improvements on the knock-in efficiency as achieved with RS-1.

[2] = tested on: rabbit embryos; experiment: Embryo development (blastocyst rate) after microinjection and treatment; type: cell-based; settings: 20 h; for blastocyst development: control 61.2%
Method: as §1, §2

[3] = tested on: rabbit embryos (CFTR locus); experiment: Cas9 mediated knock-in of CFTRdelF508 to rabbit CFTR locus in embryos in vitro; type: cell-based; settings: CFTRdelF508, Cas9, RS-1 7.5 μM; control 13%
Source text: In another embodiment, we tested the effects of RS-1 supplementation on Cas9 mediated knock-in of CFTRdelF508, the most frequent mutation type identified in human cystic fibrosis (CF) patients, to the rabbit CFTR locus (FIG. 4).

[4] = tested on: rabbit embryos (rbApoAI locus); experiment: TALEN mediated knock-in of hApoAII to rbApoAI locus in embryos in vitro; type: cell-based; settings: RS-1 7.5 μM, control 7%
Source text: In another embodiment, we tested the effects of RS-1 in a TALEN mediated knock-in system. We designed and validated TALEN pairs targeting rbApoAI locus for knocking in the hApoAII coding sequence (FIG. 2B).

[5] = tested on: rbApoAI locus; experiment: TALEN mediated hApoAII knock-in animal production (embryo transfer); type: in vivo, rabbit; settings: RS-1 treatment
Source text: In another embodiment, we tested RS-1 on the TALEN system in vivo. The same TALEN pairs and donor DNAs used in the in vitro work were used to product hApoAII knock-in animals.
Without RS-1 treatment, only one founder animal was produced out of 227 embryos transferred (FIG. 2A). The knock-in efficiency was 0.4% calculated by total knock-in founders/total embryos transferred or 6.3% calculated by total knock-in founders/total kits born.
After RS-1 treatment, we transferred a total of 145 embryos and obtained 17 kits. Seven out of 17 kits carried indel but no knock-in alleles (41%).

[6] = tested on: rabbit RLL; experiment: Cas9 mediated RLL-EGFP knock-in animal production (embryo transfer); type: in vivo; settings: RS-1 7.5 μM
Method: In one embodiment, we used RS-1 at 7.5 μM for the in vivo experiments. The sgRNA and donor DNA were used for knocking in EGFP to the rabbit RLL.
In the control group, we transferred a total of 373 embryos to synchronized recipient rabbits and obtained 43 kits. Twenty-nine of these 43 kits (67%) carried indel alleles but with on knock-in alleles. Three are proven as knock-in founders after PCR and sequencing (FIG. 2A). Of note, these three knock-in founders also carry indel alleles. The overall knock-in efficiency is 0.8% calculated by total knock-in founders/total embryos transferred, or 7.0% calculated by total knock-in founders/total kits born.
In the RS-1 treatment group (FIG. 2A), we transferred 146 embryos and obtained 38 kits, 18 of which carried indel but no knock-in alleles (47%). Similar to the in vitro results, the knock-in success rate was multifold higher than that in the control group. A total of 10 knock-in founders were produced, with the knock-in efficiency of 6.8% calculated by total knock-in founders/total embryos transferred, or 26.3% calculated by total knock-in founders/total kits born.

[7] = tested on: founder rabbits; experiment: Health and reproduction of founder animals; type: in vivo
Source text: (§3) At the time of submitting this manuscript, five RLL-EGFP founders, three from the RS-1 treatment group, two from the non-treatment group, have reached sexual maturity. We bred these RLL-EGFP founder animals with WT counterparts.
In sum, RS-1 is effective on improving knock-in rates in both the TALEN and the Cas9 mediated genome editing systems.

[8] = tested on: RLL-EGFP knock-in founder rabbits; experiment: Germline transmission and allele distribution in embryos parented by RLL-EGFP founders; type: in vivo, rabbit
Source text: as §3
To ultimately determine the frequencies of different types of alleles (i.e. WT, indel and knock-in) in the germ cells of knock-in animals, we used WT animals to breed with five RLL knock-in founders, 2 derived without RS-1 treatment and the other 3 with RS-1 treatment. Embryos were produced from founders of the RS-1 treated group (n=72) and the non-treated group (n=66), sequenced, and categorized as WT, indel, or knock-in based on the allele sequence (FIG. 2I). Similar percentage of WT alleles (17 vs. 18%) are found between these two groups. […] It appears that knock-in events take place at the expense of KO because the overall mutation rates (indel+knock-in) were similar between these two groups.

For O=c1[nH]c(=S)[nH]c(N=Cc2ccccc2)c1N=Cc1ccccc1 [SCR7], the “effect on overall knock-in efficiency” value ([1]; SCR7 20, 40, 80 μM for 20 h vs control) was “minimal effects; also recorded: no significant effects”, the overall knock-in efficiency ([1]; SCR7 treatment groups 20-80 μM, 20 h, control 7.1%) was 7.7-9.4% and the “effect on embryo development” value ([2]; SCR7 20, 40, 80 μM, judged by blastocyst rates) was “no effects on embryo development”. For the same compound, the blastocyst rate ([2]; SCR7 treatment conditions (up to 80 μM)) was 62-72%.

In the case of O=C(Nc1ccc(Br)cc1)c1ccc(Br)c(S(=O)(=O)NCc2ccccc2)c1 [RS-1], the “percentage of embryos carrying knock-in alleles” value [3] is reported as 30%, the “percentage of embryos carrying knock-in alleles” value [4] is reported as 15% and the “kits carrying indel but no knock-in alleles” value ([5]; 7 of 17 kits) is reported as 41%. For the same compound, the “knock-in efficiency, total knock-in founders/total embryos transferred” value ([5]; control 0.4%) was 2.1%, the “knock-in efficiency, total knock-in founders/total kits born” value ([5]; control 6.3%) was 17.6% and the “kits carrying indel but no knock-in alleles” value ([6]; 18 of 38 kits, control 67%) was 47%. For the same compound, the “knock-in efficiency, total knock-in founders/total embryos transferred” value ([6]; Cas9, control 0.8%) was 6.8%, the “knock-in efficiency, total knock-in founders/total kits born” value ([6]; Cas9, control 7.0%) was 26.3% and the “abnormalities in founder animals” value ([7]; RLL-EGFP and hApoAII founders derived from RS-1 treatment) was “No abnormalities”. The “toxic effects on overall animal health and reproduction” value ([7]; RS-1 treatment of embryos) was “does not appear to have any toxic effects”, the knock-in rate ([1]; RS-1 7.5 μM, 20 h, control 4.8%) was 26.1% and the knock-in efficiency ([1]; RS-1 15 μM, 20 h, control 4.8%) was 5.4%. The “increase of knock-in efficiency” value ([1]; RS-1 at optimal concentration 7.5 μM, different loci (RLL, ApoAI, CFTR), in vitro) was 2- to 5 fold, the “percentage of WT alleles” value ([8]; embryos (n=72) parented by founders of RS-1 treated group, other group 18%) was 17% and the “embryos carrying the knock-in allele (knock-in frequency at allele level)” value ([8]; embryos (n=72) parented by founders of RS-1 treatment group bred with WT, non-treated 14%) was 33%. For the same compound, the “germline transmitting founder animals” value ([8]; three animals of RS-1 treatment group, non-treatment 50%) was 100%, the blastocyst development ([2]; RS-1 7.5 μM) was 57.6% and the blastocyst development ([2]; RS-1 15 μM) was 82.2%.
